Data from PMC10291553, “Exploring Structure–Activity Relationships in Photodynamic Therapy Anticancer Agents Based on Ir(III)-COUPY Conjugates” (Journal of Medicinal Chemistry, 2023).
Read-outs that look alike come from different tables or passages of the source.

System: A2780cis cells
Assay: Photo- and cytotoxic activity determination (MTT), A2780cis cells, normoxia or hypoxia
Type: cell-based
Conditions: A2780cis; for inhibition at 250 µM: 2 h incubation in the dark, 48 h drug-free recovery
Excerpt: Having shown that the Ir(III)-COUPY conjugates can sensitize both type I and II ROS through spectroscopic techniques and readily internalize into living cells, their photocytotoxicity was screened in various cancer cell lines. This screening included two representative melanoma cell lines (human A375 and […] human SK-MEL-28) and cancer cells with resistance to the clinical drug cisplatin. For the latter, both sensitive and cisplatin-resistant ovarian cancer cells (A2780 and A2780cis) as well as HeLa cells, which also show a degree of chemoresistance to the platinum anticancer drug in vitro,[54] were used. For the determination of dark and light cytotoxicity, dose–response curves were assayed from both conditions to provide the correspondent IC50 values, which correspond to the concentration needed for inhibition of cell growth by 50%. Phototherapeutic index (PI) was calculated as the ratio of dark to light IC50 value for each compound.
A375, HeLa, and SK-MEL-28 cells were cultured in Dulbecco’s modified Eagle medium (DMEM) supplemented with 10% FBS, L-glutamine, and 1% penicillin–streptomycin. A2780 and A2780cis cells were grown in RPMI-1640 cell medium supplemented with 10% fetal bovine serum (FBS) and 2 mM L-glutamine. Acquired resistance to cisplatin in the A2780cis cell line was maintained by adding cisplatin 1 μM to culture medium every second passage. Cells were cultured in a humidified incubator at 310 K with 5% CO2 atmosphere and subcultured two or three times a week with appropriate densities and were confirmed to be mycoplasma-free using a standard Hoechst DNA staining method.
A2780, A2780cis, HeLa, A375, and SK-MEL-28 cells were maintained at logarithmic growth-phase and cultured in 96-well plates at a density of 5000 cells/well in complete medium for 24 h at 310 K, 5% CO2 in a humidified incubator. For hypoxia experiments, a hypoxia condition was set up by Tissue Culture Service at University of Murcia using nitrogen (N2) to displace O2 down to a minimum of 2% in a Forma Steri-Cycle i160 incubator (Thermo Fisher Scientific). […] A light-based treatment schedule was performed as follows: 1 h incubation with the compounds in the dark, followed by 1 h incubation under irradiation conditions by placing the Photoreactor EXPO-LED from Luzchem (Canada) fitted with green lamps (final light intensity applied of 1.5 mW/cm^2 at λmax = 520 nm) inside the CO2 incubator. All the cell culture plates subjected to light irradiation included untreated controls to verify that cell viability was not affected by light. Then, treatment-containing media was removed, and fresh media was added for a 48 h cell recovery period; the temperature throughout the experiment remained at 310 K. Dark control samples were placed in the same dark conditions and then kept incubated for 1 h in the dark in the humidified CO2 incubator. Medium was then aspirated by suction, cells were loaded with 50 μL of MTT solution (1 mg/mL) for additional 4 h and then removed, and 50 μL of DMSO was added to solubilize the purple formazan crystals formed in active cells. The absorbance was measured at 570 nm using a microplate reader (FLUOstar Omega), and the IC50 values were calculated based on the inhibitory rate curves using the following equation [drawing 4] 4 where I represents the percentage inhibition of viability observed, Imax is the maximal inhibitory effect, IC50 is the concentration that inhibits 50% of maximal growth, C is the concentration of the treatment, and n is the slope of the semi-logarithmic dose–response sigmoidal curves. The non-linear fitting was performed using SigmaPlot 14.0 software. All experiments were performed in three independent studies with n = 3 replicates per concentration level. For a detailed phototoxicity procedure, ref ([43]) includes technical explanations.

Q: For `NCC(=O)CCC(=O)O` [5-ALA, 5-aminolevulinic acid, reference compound], which inhibition at 250 µM (hypoxia, read-out: Partial inhibition (% of cell growth inhibition with respect to untreated controls), Hypoxia) is on record?
A: 1 ± 0.2%

Q: What about the inhibition at 250 µM (normoxia, read-out: Partial inhibition (% of cell growth inhibition with respect to untreated controls), Normoxia) of the same molecule?
A: 3.5 ± 0.4%

Q: What about the IC50 (hypoxia 2% O2, 1 h incubation + 1 h green light 520 nm, 48 h drug-free, read-out: Hypoxia 520 nm IC50) of the same molecule?
A: > 250 µM

Q: What about the IC50 (hypoxia 2% O2, dark, tested up to 250 μM, read-out: Hypoxia Dark IC50) of the same molecule?
A: > 250 µM

Q: What about the IC50 (hypoxia, 520 nm, read-out: A2780cis Light 520 nm IC50 (microM) Hypoxia) of the same molecule?
A: > 250 µM

Q: And the IC50 (hypoxia, dark, read-out: A2780cis Dark IC50 (microM) Hypoxia)?
A: > 250 µM

Q: What about the “Normoxia PI (phototherapeutic index)” value (normoxia 21% O2, 520 nm, dark tested up to 250 μM) of the same molecule?
A: > 4.0

Q: What about the IC50 (normoxia 21% O2, dark, tested up to 250 μM, read-out: Normoxia Dark IC50) of the same molecule?
A: > 250 µM

Q: And the IC50 (normoxia, 520 nm, read-out: A2780cis Light 520 nm IC50 (microM) Normoxia)?
A: 62 ± 12 µM

Q: And the IC50 (normoxia, dark, up to 250 microM, read-out: A2780cis Dark IC50 (microM) Normoxia)?
A: > 250 µM
